Measurements reported in US11279733B2, “Peptide antibiotics” (priority 2017, dated 2022).
Values after ≈ are worked out from the molar mass of the structure shown. Positions of bridges follow the written chain, without caps; N, C: chain ends. Non-standard residues stand in square brackets, D forms with d. Residues, ends and D or L forms follow the SMILES beside them. *: point of attachment. Decanoyl(3R-OH) = CCCCCCC[C@@H](O)CC(=O)*; Phe(4-NH2) = Nc1ccc(C[C@H](N)C(=O)O)cc1; Nonanoyl = CCCCCCCCC(=O)*; dDab = NCC[C@@H](N)C(=O)O; Heptanoyl = CCCCCCC(=O)*; dDap = NC[C@@H](N)C(=O)O; Dab = NCC[C@H](N)C(=O)O

Legend:
[1] = test system: K. pneumoniae ATCC BAA-2146, NDM-1 pos; conditions: ATCC BAA-2146
Procedure, shortened: (§1)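 Mid-log cultures grown in Mueller Hinton broth at 37° C were tested by 2-fold broth microdilution at 5×10^5 CFU/mL final. Compounds were dissolved in water and tested over a final range of 32 to 0.015 μg/mL.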

P. aeruginosa ATCC 27853 = conditions: ATCC 27853
Procedure, shortened: as §1

[2] = test system: K. pneumoniae ATCC 700603, MDR; conditions: ATCC 700603
Procedure, shortened: as §1

K. pneumoniae ATCC 13883 = conditions: ATCC 13883
Procedure, shortened: as §1

E. coli ATCC 25922 = conditions: ATCC 25922
Procedure, shortened: as §1

in vitro [3] = conditions: human
Experimental: Cytotoxicity of the synthesised peptides was evaluated by comparison with commercially available colistin (polymyxin E), polymyxin B (Sigma chemical Co., St. Louis, Mo., U.S.A.) and synthetic octapeptin C4 by conducting lactate dehydrogenase (LDH) assay. CC50 values calculated based on curve fitting of dose dependent inhibition of cell growth represented the cytotoxicity of the peptide. Human kidney 2 (HK2) cells were seeded as 2000 cells per well in a 384 well cell culture plate in a final volume of 20 μL in DMEM/F12 medium (Invitrogen #11330057), in which 10% of FBS was added. Cells were incubated for 24 hours at 37° C., 5% CO2 to allow cells to attach to the plates. Similar conditions were employed for HEK293 and HepG2 cytotoxicity assays.
Colistin and polymyxin B were tested from a range of 2 mM to 0.9 μM. 120 μL of the 1 mM stock solutions in water of each synthesised peptide were freeze-dried and processed for LDH assay. After freeze-dry procedure, the compounds were reconstituted into 600 μM solutions using culture media. All tested compounds were diluted from 600 μM to 0.27 μM in 3-fold dilutions. Then 20 μL of each dilution was added into 20 uL of culture medium in quadruplicate to reach the final concentrations. The cells were incubated with the compounds for 24 h at 37° C., 5% CO2. After the incubation, 5 μL of culture medium was added to 50 μL of LDH assay buffer and incubated for 1 h at room temperature. The absorbance was read at 450 nm using Polarstar. The data was then analysed by Prism software. […] Nephrotoxicity Assessment in Human Proximal Tubule Cells.

[4] = test system: P. aeruginosa GN_105, PmxR; conditions: GN 105, PmxR
Procedure, shortened: as §1

[5] = test system: K. pneumoniae GN_102 PmxR; conditions: GN 102 PmxR
Procedure, shortened: as §1

A. baumannii ATCC 19606 = conditions: ATCC 19606
Procedure, shortened: as §1

[6] = test system: P. aeruginosa GN_043, PmxR; conditions: P. aeruginosa GN_043, PmxR
Procedure, shortened: as §1

[7] = test system: S. aureus ATCC 25923, MSSA; conditions: ATCC 25923
Procedure, shortened: as §1

A. baumannii GN_093 PmxR = conditions: GN 093 PmxR
Procedure, shortened: as §1

[8] = test system: K. pneumoniae GN_106, PmxR; conditions: GN 106, PmxR
Procedure, shortened: as §1

in vitro [9] = conditions: human; remark: listed apart in the source
Procedure, shortened: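 Fluorescence read-out (excitation 560, emission 590) after a 2 h, 37 °C incubation with 5 μM resazurin, following 24 h compound treatment of cells plated at 4000 per well. CC50 values come from fitting dose–response curves of growth inhibition.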

SMILES	MIC K. pneumoniae ATCC BAA-2146, NDM-1 pos [1] [µg/mL]	MIC P. aeruginosa ATCC 27853 (P. aeruginosa ATCC 27853) [µg/mL]	MIC K. pneumoniae ATCC 700603, MDR [2] [µg/mL]	MIC K. pneumoniae ATCC 13883 (K. pneumoniae ATCC 13883) [µg/mL]	MIC E. coli ATCC 25922 (E. coli ATCC 25922) [µg/mL]	CC50 at 24 h (in vitro [3]) [µM]	MIC P. aeruginosa GN_105, PmxR [4] [µg/mL]	MIC K. pneumoniae GN_102 PmxR [5] [µg/mL]	MIC A. baumannii ATCC 19606 (A. baumannii ATCC 19606) [µg/mL]	MIC P. aeruginosa GN_043, PmxR [6] [µg/mL]	MIC S. aureus ATCC 25923, MSSA [7] [µg/mL]	MIC A. baumannii GN_093 PmxR (A. baumannii GN_093 PmxR) [µg/mL]	MIC K. pneumoniae GN_106, PmxR [8] [µg/mL]	CC50 at 24 h (in vitro [9]) [µM]
CCCCCCC[C@@H](O)CC(=O)N[C@H](CCN)C(=O)N[C@H]1CCNC(=O)[C@H]([C@@H](C)O)NC(=O)[C@H](Cc2ccc(N)cc2)NC(=O)[C@H](CCN)NC(=O)[C@H](CC(C)C)NC(=O)[C@@H](Cc2ccccc2)NC(=O)[C@H](CCN)NC1=O [compound 5605, 3(R)OH-nC9CO-D-Dab-cyc[L-Dab-L-Dab-D-Phe-L-Leu-L-Dab-L-4NH2Phe-L-Thr]] ({Decanoyl(3R-OH)}-[dDab][Dab][Dab][dF]L[Dab][Phe(4-NH2)]T; lactam 2-C)	16 (≈ 14.6 µM)	8 (≈ 7.31 µM)	32 (≈ 29.2 µM)	16 (≈ 14.6 µM)	16 (≈ 14.6 µM)	115								
CCCCCCC[C@@H](O)CC(=O)N[C@H](CCN)C(=O)N[C@H]1CCNC(=O)[C@H]([C@@H](C)O)NC(=O)[C@H](CCCNC(=N)N)NC(=O)[C@H](CCN)NC(=O)[C@H](CC(C)C)NC(=O)[C@@H](Cc2ccccc2)NC(=O)[C@H](CCN)NC1=O [compound 5606, 3(R)OH-nC9CO-D-Dab-cyc[L-Dab-L-Dab-D-Phe-L-Leu-L-Dab-L-Arg-L-Thr]] ({Decanoyl(3R-OH)}-[dDab][Dab][Dab][dF]L[Dab]RT; lactam 2-C)	>32	2 (≈ 1.84 µM)	16 (≈ 14.7 µM)	32 (≈ 29.4 µM)	>32	137								
CCCCCCC(=O)N[C@H](CN)C(=O)N[C@H]1CCNC(=O)[C@H](CC(C)C)NC(=O)[C@H](CCN)NC(=O)[C@H](CCN)NC(=O)[C@H](CC(C)C)NC(=O)[C@@H](Cc2ccccc2)NC(=O)[C@H](CCN)NC1=O [compound 9190, nC6CO-D-Dap-cyc[L-Dab-L-Dab-D-Phe-L-Leu-L-Dab-L-Dab-L-Leu]] (Heptanoyl-[dDap][Dab][Dab][dF]L[Dab][Dab]L; lactam 2-C)	16 (≈ 16.5 µM)	2 (≈ 2.06 µM)	16 (≈ 16.5 µM)	16 (≈ 16.5 µM)	8 (≈ 8.23 µM)		8 (≈ 8.23 µM)	32 (≈ 32.9 µM)	>32	4 (≈ 4.11 µM)	>32	>32	>32	> 300
CCCCCCCCC(=O)N[C@H](CN)C(=O)N[C@H]1CCNC(=O)[C@H](CC(C)C)NC(=O)[C@H](CCN)NC(=O)[C@H](CCN)NC(=O)[C@H](CC(C)C)NC(=O)[C@@H](Cc2ccccc2)NC(=O)[C@H](CCN)NC1=O [compound 9191, nC8CO-D-Dap-cyc[L-Dab-L-Dab-D-Phe-L-Leu-L-Dab-L-Dab-L-Leu]] (Nonanoyl-[dDap][Dab][Dab][dF]L[Dab][Dab]L; lactam 2-C)	8 (≈ 8 µM)	4 (≈ 4 µM)	8 (≈ 8 µM)	8 (≈ 8 µM)	4 (≈ 4 µM)		2 (≈ 2 µM)	8 (≈ 8 µM)	>32	2 (≈ 2 µM)	32 (≈ 32 µM)	>32	16 (≈ 16 µM)	> 300
